Results from paper PMC9431032, “Boosting Cosmeceutical Peptides: Coupling Imidazolium-Based Ionic Liquids to Pentapeptide-4 Originates New Leads with Antimicrobial and Collagenesis-Inducing Activities” (Microbiology Spectrum, 2022).
Several values for one entry are separate records, joined by “and”; a condition that tells them apart may be missing. Identical values can stand only once. Like-named read-outs stand apart in the source and are kept apart here. Peptide text beside a SMILES is read from it. * marks the point of attachment. X1 = CCCCCCCCCCCCCCCCn1cc[n+](Cc2cn(CC(=O)*)nn2)c1

Columns and labels:
[1] = system: human dermal fibroblasts (HDF); experiment: Collagen production, Sircol kit assay; assay type: cell-based; settings: 5 μM, 48 h, three independent experiments in triplicates, values only in Fig. 3
Protocol: The point of conjugating antimicrobial ILs to a collagenesis-inducing peptide was to afford a simple construct able to exert a dual antimicrobial and skin rebuilding action. Therefore, the two best IL-KTTKS conjugates were further tested for their ability to promote collagen production by human dermal fibroblasts (HDF) in vitro. This was assessed using the Sircol kit assay, whereby the amount of newly formed collagen in the ECM that is deposited in the microwell-plated cell cultures is solubilized in an acidic medium and next quantified through a collagen standard curve according to the Sircol kit assay procedure ([38]). […]
(v) Collagen production in human dermal fibroblasts. The amount of collagen produced by HDF was determined using the SIRCOL Kit Assay (Biocolor) according to the manufacturers’ instructions ([38]). […] Medium was then removed, and quantitation of the newly formed collagen proceeded as follows: collagen was solubilized in cold 0.5 M aqueous acetic acid (Fisher Chemical) and concentrated overnight with deposition of a transparent pellet; after centrifugation, the supernatant was discarded and the pellet was labeled with the SIRCOL dye reagent; after removing the unbound dye with the acid-salt wash reagent, the collagen-bound dye was dissolved with the alkali reagent and absorbance was measured at 555 nm on Flex Station 3 multimode microplate reader. […]

[2] = system: HaCaT cells (human immortalized keratinocytes); experiment: cells; assay type: cell-based; settings: 24 h
Protocol: (§1) The cytotoxicity of KTTK(C16Im)S and C16Im-KTTKS conjugates was assessed on human foreskin fibroblasts (HFF-1) and human immortalized keratinocytes (HaCaT). […] In turn, the parent IL [C16 M1Im][Br] and its […] equimolar mixture with PP4, KTTKS:[C16 M1Im][Br]
(§2) (iv) Toxicity to human cells. HaCat and HFF-1 were seeded at 4 × 10^4cell/mL in 96-well plate using in Dulbecco’s Modified Eagle Medium (DMEM; CLS) supplemented with 2% FBS (Biowest) and 1% of antibiotic/antimycotic solution (100 units/mL of penicillin, 10 mg/mL of streptomycin, and 0.25 mg/mL of amphotericin B, Sigma-Aldrich). The plate was incubated at 37°C in a 5% CO2 atmosphere, and the cells allowed to grow until confluence was reached. Then, solutions of the test compounds in DMEM supplemented with 2% FBS, in a concentration range between 6.3 and 100 μM, were added to the wells. After 24 h of incubation at 37°C in a 5% CO2 atmosphere, the cell viability was assessed through the resazurin reduction assay. Briefly, the medium was removed and then 20 μL of the alamarBlue Cell Viability Reagent (Resazurin sodium salt, Sigma-Aldrich) at 0.15 mg/mL in 100 μL of Hank’s Balanced Salt Solution (HBSS; Sigma-Aldrich) were added to each well; the plate was next incubated for 2 h at 37°C in a 5% CO2 atmosphere, after which fluorescence was read at 560/590 nm on a Flex Station 3 multi-mode microplate reader (Molecular Devices) ([53]). The IC50 values were thus determined using the GraphPad Prism 9.0 software, by applying the equation log(inhibitor) versus response with variable slope (four parameters).

[3] = system: C. albicans ATCC 90028; experiment: microbe, parasite or virus in culture; settings: C. albicans ATCC 90028, RPMI 1640 with 2% glucose, EUCAST, n = 2
Protocol: (§3) The MIC values were determined according to the European Committee on Antimicrobial Susceptibility Testing (EUCAST) protocol ([36]) and are shown on Table 4.
(§4) (iii) Antifungal activity.

[4] = system: C. parapsilosis ATCC 22019; experiment: microbe, parasite or virus in culture; settings: C. parapsilosis ATCC 22019, RPMI 1640 with 2% glucose, EUCAST, n = 2
Protocol: as §3, §4

[5] = system: C. glabrata ATCC 90030; experiment: microbe, parasite or virus in culture; settings: C. glabrata ATCC 90030, RPMI 1640 with 2% glucose, EUCAST, n = 2
Protocol: as §3, §4

[6] = system: S. aureus (ATCC 29213); settings: for MBC: ATCC 29213, 24 h; for MIC: 10^5 CFU/mL, 18 h at 37°C, three independent experiments in triplicates
Protocol: The antibacterial activity of C16Im-KTTKS and KTTK(C16Im)S was also assessed in simulated wound fluid (SWF) ([35]) against S. aureus (ATCC 29213), to check if it was preserved in this medium.
(ii) Antibacterial activity in simulated wound fluid. […] In parallel, SWF was prepared to a final composition of 50% fetal bovine serum (FBS; Sigma-Aldrich) and 50% peptone water (0.9% NaCl in 0.1% aqueous peptone; Sigma-Aldrich) ([35]). […] MIC values were determined in triplicates and are a result of three independent experiments.

[7] = system: P. aeruginosa (PA004) MDR clinical isolate; settings: n = 3
[8] = system: P. aeruginosa ATCC 27853; experiment: microbe, parasite or virus in culture; settings: P. aeruginosa ATCC 27853; broth microdilution in cation-adjusted MHB2, CLSI; n = 3
Protocol: (§5) The antimicrobial activity of the IL-KTTKS conjugates was assessed in vitro against reference bacterial strains (American Type Culture Collection, ATCC). The minimal inhibitory concentration (MIC) was determined according to the Clinical and Laboratory Standards Institute (CLSI) guidelines ([28]) against Gram-positive (S. aureus, Enterococcus faecalis) and Gram-negative (Escherichia coli, Pseudomonas aeruginosa) bacteria.
(§6) (i) Antibacterial activity in standard conditions. The test conjugates and reference compounds were evaluated for their activity against three reference strains of Gram-negative bacteria, namely, E. coli (ATCC 25922), Pseudomonas aeruginosa (ATCC 27853), and Klebsiella pneumoniae (ATCC 13883), and the four following reference strains of Gram-positive bacteria, Staphylococcus aureus (ATCC 29213), S. Epidermidis (ATCC 14990), E. faecalis (ATCC 29212), and Streptococcus pyogenes (ATCC 19615). […] MBC values were also determined as previously reported ([52]).

[9] = system: S. aureus ATCC 29213; experiment: microbe, parasite or virus in culture; settings: S. aureus ATCC 29213; broth microdilution in cation-adjusted MHB2, CLSI; n = 3
Protocol: as §5, §6

[10] = system: K. pneumonia ATCC 138830; experiment: microbe, parasite or virus in culture; settings: K. pneumonia ATCC 138830; broth microdilution in cation-adjusted MHB2, CLSI; n = 3
Protocol: as §5, §6

[11] = system: E. faecalis ATCC 29212; experiment: microbe, parasite or virus in culture; settings: E. faecalis ATCC 29212; broth microdilution in cation-adjusted MHB2, CLSI; n = 3
Protocol: as §5, §6

[12] = system: E. coli ATCC 25922; experiment: microbe, parasite or virus in culture; settings: E. coli ATCC 25922; broth microdilution in cation-adjusted MHB2, CLSI; n = 3
Protocol: as §5, §6

[13] = system: S. aureus (SA007) MDR clinical isolate; settings: for MIC: n = 3
[14] = system: S. epidermidis ATCC 14990; settings: broth microdilution in cation-adjusted MHB2, CLSI, n = 3
Protocol: as §5, §6

[15] = system: HFF-1 cells (human foreskin fibroblasts); assay type: cell-based; settings: 24 h
Protocol: as §1, §2

[16] = system: K. pneumoniae (KP010) MDR clinical isolate; settings: n = 3
[17] = in SWF (50% FBS, 50% peptone water)

Structure (SMILES): CCCCCCCCCCCCCCCCn1cc[n+](Cc2cn(CCCC[C@H](NC(=O)[C@@H](NC(=O)[C@@H](NC(=O)[C@@H](N)CCCCN)[C@@H](C)O)[C@@H](C)O)C(=O)N[C@@H](CO)C(N)=O)nn2)c1 [KTTK(C16Im)S]
- Collagen synthesis by HDF compared to the negative control [1]: produce more collagen
- IC50 [2]: 23.1 ± 1.1 µM
- MIC ([3]; listed as KTTK(C16m)S): 5.4 μM and 5.0 μg/mL
- MIC ([4]; listed as KTTK(C16m)S): 2.7 μM and 2.5 μg/mL
- MIC ([5]; listed as KTTK(C16m)S): 5.4 μM and 5.0 μg/mL
- MBC [6]: 32 [64 to 128] μg/mL
- MIC ([6]; in MHB): 32 µg/mL
- MIC [6, 17]: 64 to 128 µg/mL
- MIC [7]: 21.7 μM and 20.0 μg/mL
- MIC [8]: 32.5 μM and 29.9 μg/mL
- MIC [9]: 14.0 μM and 12.9 μg/mL
- MIC [10]: 53.8 μM and 49.5 μg/mL
- MIC [11]: 32.5 μM and 29.9 μg/mL
- MIC [12]: 7.0 μM and 6.45 μg/mL
- MIC [13]: 21.7 μM and 20.0 μg/mL
- MIC [14]: 5.4 μM and 5.0 μg/mL
- IC50 [15]: 12.7 ± 1.06 µM
- MIC [16]: 21.7 μM and 20.0 μg/mL

Structure (SMILES): CCCCCCCCCCCCCCCCn1cc[n+](Cc2cn(CC(=O)N[C@@H](CCCCN)C(=O)N[C@H](C(=O)N[C@H](C(=O)N[C@@H](CCCCN)C(=O)N[C@@H](CO)C(N)=O)[C@@H](C)O)[C@@H](C)O)nn2)c1 [Peptide C16Im-KTTKS] (X1-KTTKS-NH2)
- Collagen synthesis by HDF compared to the negative control [1]: produce more collagen
- IC50 [2]: 36.6 ± 1.09 µM
- MIC [3]: 4.7 μM and 4.6 μg/mL
- MIC [4]: 2.4 μM and 2.3 μg/mL
- MIC [5]: 4.7 μM and 4.6 μg/mL
- MBC [6]: 32 to 64 µg/mL
- MIC ([6]; in MHB): 16 to 32 µg/mL
- MIC [6, 17]: 16 to 32 µg/mL
- MIC [7]: 18.5 µg/mL
- MIC [8]: 28.7 μM and 28.0 μg/mL
- MIC [9]: 14.3 μM and 14.0 μg/mL
- MIC [10]: 27.4 μM and 26.8 μg/mL
- MIC [11]: 28.7 μM and 28.0 μg/mL
- MIC [12]: 14.3 μM and 14.0 μg/mL
- MIC relative to that of ciprofloxacin [13]: ~10 fold
- MIC [13]: 18.5 µg/mL
- MIC [14]: 9.5 μM and 9.3 μg/mL
- IC50 [15]: 22.5 ± 1.08 µM
- MIC [16]: 37.9 μM and 37.0 μg/mL
